Results taken from BindingDB's records for doi:10.1021/jm061344o (Incyte, 2007).

Assay: Inhibition of Her2 sheddase activity in BT474 cell line
For `O=C(NO)[C@H]1CC2(CC2)CN[C@@H]1C(=O)N1CCN2c3ccccc3CC2C1` (stereo partly drawn) [(6S,7S)-N-hydroxy-6-(3,4,10,10a-tetrahydropyrazino[1,2-a]indol-2(1H)-ylcarbonyl)-5-azaspiro[2.5]octane-7-carboxamide], the IC50 was 280 nM. `O=C(NO)[C@H]1CC2(CC2)CN[C@@H]1C(=O)N1CCC(c2ccccc2)CC1` [(6S,7S)-N-hydroxy-6-[(4-phenylpiperidin-1-yl)carbonyl]-5-azaspiro[2.5]octane-7-carboxamide] gave an IC50 of 140 nM. With `O=C(NO)[C@H]1CCCN[C@@H]1C(=O)N1CC[C@H](c2ccccc2)C1` [(2S,3S)-N-hydroxy-2-((R)-3-phenylpyrrolidine-1-carbonyl)piperidine-3-carboxamide] the IC50 was 560 nM.
